Measurements published in publication PMC6240096, “A hPSC-based platform to discover gene-environment interactions that impact human β-cell and dopamine neuron survival” (Nature Communications, 2018).

What was measured:
INS- cells = assay: High-content survival / inhibitory curve, hESC-derived INS- cells; assay type: cell-based, human; conditions: H1 hESC-derived, β-cell differentiation protocol 1, 4 days treatment, n = 8
Description: The screening library ToxCast Phase I was obtained from the US Environmental Protection Agency, which contains approximately 2000 compounds dissolved at 20 mM in DMSO. The H1 hESC-derived population was dissociated with Accutase and re-plated onto laminin V-coated 384-well plates at 5000 cells per well. After 16 h incubation, cells were treated with individual compounds from the ToxCast library with four concentrations, including 20 nM, 200 nM, 2 μM, and 20 μM, for each compound. After 4 days, the cells were fixed with 10% formalin and stained with an INS antibody and DAPI, followed by automatic imaging and analysis by ImageXpress^MICRO Automated High-Content Analysis System (Molecular Devices) to count the numbers of INS^+ and INS^− cells. The survival rate was calculated by dividing the numbers of INS^+ cells in compound treated conditions by the average number of INS^+ cells in DMSO-treated conditions. The compounds that induced more than 60% reduction of the survival rate of INS^+ cells and less than 20% of the INS^− cells were chosen as primary hits. […]
hESCs-derived INS^+ cells, MSCs[43], neurons, and hepatocytes[44] were derived based on the reported protocols and re-plated on 96-well plates with Accutase digestion. […] Plates were analyzed by ImageXpress^MICRO Automated High-Content Analysis System.

[1] = tested on: MYH6:mCherry+ cardiomyocytes; assay: Inhibition curve on hESC-derived cardiomyocytes; assay type: cell-based, human; conditions: cell survival rate, 4 days, n=3
Description: (§1) hESCs-derived INS^+ cells, MSCs[43], neurons, and hepatocytes[44] were derived based on the reported protocols and re-plated on 96-well plates with Accutase digestion. Cardiomyocytes (CMs) were differentiated from H9-MYH6: mCherry reporter line, based on the reported protocol. After overnight incubation, cells were treated with DMSO or different doses of hit compounds for 4 days. After fixation, the cells were stained with markers for each cell type. DAPI was used to stain cell nuclei. Plates were analyzed by ImageXpress^MICRO Automated High-Content Analysis System.
(§2) Supplementary Figure 4. Assessment of the toxic effect of propargite on different type […]
(§3) (a) Flow cytometry char acterization of CD29+ and CD73+ mesenchymal stem cells (MSCs) derived from H1 hESCs. (b-c) microscope image (b) and flow cytometry (c) characterization of cardiomyocytes expressing MYH6+ derived from a MYH6:mCherry reporter hESC line. (d-e) Immunocytochemistry characterization of MAP2+/TUJ1+ and HuC/D+/MAP2+ neurons (d) and A1AT+/ASGPR1+ hepatocytes (e) derived from H1 hESCs. All the cells were counterstained by DAPI (blue). Scale bars, 100 µm. (f) Inhibition curve of propargite on pancreatic β-like cells, MSCs, cardiomyocytes, neurons, and hepatocytes derived from hESCs, and BJ-fibroblasts (n=3). Values presented as mean±S.D. […]

A1AT+ hepatocytes = assay: Inhibition curve on hESC-derived hepatocytes; assay type: cell-based, human; conditions: cell survival rate, 4 days, n=3
Description: as §1, §2, §3

MIN6 cells = assay: Ki67 proliferation staining of MIN6 cells; assay type: cell-based, mouse; conditions: 1.6 μM propargite vs DMSO, 4 days
Description: Cells were fixed with 10% (v/v) formalin for 20 min at room temperature (RT) and blocked in a solution of Mg^2+- and Ca^2+-free PBS containing 5% horse serum and 0.3% Triton-X for 1 h at room temperature and followed by incubation with primary antibody at 4 °C overnight. The following primary antibodies and dilutions have been used in this study: goat anti-SOX17 (1:500, R&D system, AF1924), rabbit anti-FOXA2 (1:500, Upstate, 07-633), goat anti-PDX1 (1:500, R&D system, AF2419), mouse anti-NKX6.1 (1:100; BCBC, Ab2024), guinea pig anti-INS (1:1000, Dako, A0564), guinea pig anti-GLUCAGON (1:500, Linco, 4031), mouse anti-Ki67 (1:100, Life technologies, 556003), mouse anti-AMYLASE (1:100, Santa Cruz, sc-46657), rabbit anti-Active Caspase-3 (1:500, BD Bioscience, 559565), mouse anti-Troponin T (1:500, Thermo Scientific, MA5-12960), mouse anti-Actin, Cardiac (1:300, Sigma, A9357), rabbit anti-TUJ1 (1:500, Covance, MRB-435P), Chicken anti-MAP2 (1:1000, Abcam, Ab5392), mouse anti-HuC/D (1:500, Invitrogen, A-21271), mouse anti-MAP2 (1:1500, Sigma, M1406), rabbit anti-TH (1:500, Pel freeze, P40101-0), rat-anti-CTIP2 (1:500, Abcam, ab18465), goat anti-FOXA2 (1:200, R&D, 463783). Donkey anti-guinea pig, mouse, goat, rabbit or chicken secondary antibodies conjugated with Alexa-Fluor-488, Alexa-Fluor-594 or Alexa-Fluor-647 fluorophore (1:500, Life technologies) were used. […]

EndoC-βH1 cells = EndoC-βH1 cells carrying sgGSTT1, PI staining; assay type: cell-based, human; conditions: 1.6 μM propargite
Description: Two sgRNAs targeting two different loci on GSTT1 gene: sgGSTT1-1 and sgGSTT1-2 and a sgRNA targeting GFP (sgGFP)[46] which has no specific targets on the human genome and was used as a control, were cloned into lentiCRISPRv2 vectors (Addgene plasmid # 52961)[47]. EndoC-βH1 cells were infected with the lentivirus carrying Cas9 and sgRNAs. After 2 days of selection with 1 μg/ml puromycin, western blots were used to validate the knockout efficiency.

Q: What does the source list for “2-(4-tert-butylphenoxy)-cyclohexyl prop-2-yne-1-sulfonate [propargite]”?
A: IC50 (INS- cells): 9.83 µM; IC50 [1]: 29 µM; IC50 (A1AT+ hepatocytes): 13 µM; percentage of Ki67+/INS+ cells (MIN6 cells): No significant difference; INS+ cell death in EndoC-βH1 cells expressing sgGSTT1 (EndoC-βH1 cells): significant increase
